21 compounds from US7829500B2, “Plant-activating agent” (Kao Corporation, priority 2000, dated 2010) can be followed below.

For the experiment, the system named is Chlorella cells. The experiment is described as follows: Test of reproductive ability using chlorella cells. In kind it is cell-based. Particulars: relative number of chlorella cells after 14 days, non-treated area = 100. How it is done:
Chlorella cells which were green cells of a […] were cultured with vibration in an inorganic salt medium. […] The concentration of the cells was set to 1.00×10^5 (cells per ml) at the start of the test. […] As the inorganic salt medium, a Linsmaier-Skoog (LS) medium was used. Three media were used as the treated areas and the non-treated areas every the plant-activating agent or the plant-activating composition. The average thereof was compared with that in the non-treated areas.

[1] abbreviates: Table 1, LS medium, concentration (ppm) as in table.

“Citric acid C18 monoester [Inventive product 1-1]”: the reproductive ability under setting [1] is on record as 142. As to `CCCCCCCCCCCCCCCCCCCCCC(=O)O` [Inventive product A1-6, Behenic acid (LUNAC BA)], under “Table A1”, the reproductive ability was 150. In the case of `OCC(O)CO` [Comparative product B1-1, Glycerol, reference compound], where the note is “Table B1”, the reproductive ability is 98. `CC(O)C(=O)O` (stereo not drawn) [Comparative product 1-1, Lactic acid, reference compound] gave a reproductive ability under setting [1] of 99. The compound `CCCCCCCC/C=C\CCCCCCCC(=O)O` [Inventive product A1-5, Oleic acid] returned a reproductive ability (Table A1) of 148. The same measure, in the same setting: next, `CC(=O)O` [Comparative product A1-1, Acetic acid, reference compound]: 90; `CCC(=O)O` [Comparative product A1-3, Propionic acid, reference compound]: 94; `CCCCCCCCCCCCCC(=O)O` [Inventive product A1-1, Myristic acid (LUNAC MY-98)]: 127. The same measure, in the same setting: next, `CC(O)C(=O)O` (stereo not drawn) [Comparative product A1-4, Lactic acid, reference compound]: 93. “Citric acid C18 monoamide [Inventive product 1-5]” showed a reproductive ability under setting [1] of 139.

“Stearic acid monoglyceride [Inventive product B1-3]” gave a reproductive ability (Table B1) of 132. The compound “Citric acid C18 monoester potassium salt [Inventive product 1-3]” had a reproductive ability under setting [1] of 138. “Citric acid C14 monoamide [Inventive product 1-6]” gave a reproductive ability under setting [1] of 136. With `O=C1OCC(CO)O1` (stereo not drawn) [Inventive product B1-9, Glycerol carbonate], where the note is “Table B1”, the reproductive ability turned out to be 126. On to `CCCCCCCCCCCCCCCCCCCCCCCCCCCCCC(=O)O` [Inventive product A1-7, Melissic acid], for which, under “Table A1”, the reproductive ability is recorded as 138. For the setting “Table B1”, `CCCCCCCCCCCCCCCCCCOC(=O)C(O)CO` (stereo not drawn) [Inventive product B1-6, Glyceric acid stearyl ester] had a reproductive ability of 122. The compound “Citric acid C12 monoamide [Inventive product 1-8]” came in with a reproductive ability under setting [1] of 128. With “Hexaglycerol ester of stearic acid [Inventive product B1-8]”, the reproductive ability (Table B1) is given as 123.

As to “Citric acid C18 diester [Inventive product 1-7]”, under setting [1], the reproductive ability came out at 138. Where the note is “Table B1”, `CCCCCCCCCCCCCCCCCCOCC(O)CO` (stereo not drawn) [Inventive product B1-4, Batyl alcohol] gave a reproductive ability of 130. Same read-out and setting: next, `CCCCCCCCCCCCCCCCNC(=O)C(O)CO` (stereo not drawn) [Inventive product B1-7, Glyceric acid cetyl amide]: 120.
